Measured values from publication PMC3638593, “1,4-dihydroxy-2-naphthoic Acid Induces Apoptosis in Human Keratinocyte: Potential Application for Psoriasis Treatment” (Evidence-based Complementary and Alternative Medicine : eCAM, 2013).
Several values for one entry are separate records, joined by “and”; a condition that tells them apart may be missing. Equal values may be shown once. Read-outs that look alike come from different tables or passages of the source.

Experiments:
Type in all cases: cell-based, human
[1] = tested on: apoptosis related proteins in HaCaT cells; experiment: Western blot of apoptosis related proteins
Method: (§1) After DHNA treatment HaCaT cells were collected and lysed in CelLytic M Mammalian Cell Lysis/Extraction Reagent with freshly added Protease Inhibitor Cocktail for 30 min at 4°C. Cell lysate was centrifuged at 15000 g for 15 min at 4°C and supernatant was collected as whole cell lysate. Protein concentration was determined by Bio-Rad protein assay dye reagent concentrate (Bio-Rad Laboratories, Hercules, CA, USA) following the manufacturer's instructions. Whole cell lysate was denatured by boiling for 5 min in 6X SDS loading buffer (0.375 M Tris [pH 6.8], 30% glycerol, 12% SDS, 0.2% bromophenol blue and 12% β-mercaptoethanol). Equal amount of protein (10–20 μg) was then separated by 12–15% SDS-PAGE and later proteins were transferred to polyvinylidene difluoride membrane (Millipore, Billerica, MA, USA) using Trans-Blot SD semidry transfer cell (Bio-Rad Laboratories). After that, membranes were blocked with 2–5% (w/v) bovine serum albumin or nonfat dry milk in Tris-buffered Saline-Tween (TBS-T; 0.05% v/v Tween-20, 10 mM Tris [pH 7.4], 150 mM NaCl) for 1 h and subsequently incubated overnight at 4°C with different primary antibodies in TBS-T. Membrane was then washed using TBS-T and followed by incubation with corresponding horseradish peroxidase labeled second antibodies (Santa Cruz Biotechnology) in TBS-T for 1 h. After washing of membrane with TBS-T, protein bands were visualized using Immobilon Western Chemiluminescent HRP Substrate (Millipore) and autoradiography with Lumi-Film Chemiluminescent Detection Film (Roche Applied Science). Equal protein loading was monitored by β-actin antibody on the same membrane.

[2] = tested on: AIF and endoG in HaCaT cells; experiment: Immunofluorescence staining of AIF and endoG; settings: 240 μM (49.01 μg/mL), 24 h
Method: HaCaT cells were first seeded on cover-slipped 6 well plates. After DHNA treatment, cells were washed three times with PBS and fixed in 1 : 1 acetone/methanol at −20°C for 10 min. Thereafter, cells were washed with PBS three times and then blocked for 15 min in blocking solution (1% BSA in PBS) at room temperature. After that, cells were incubated with either one of the following antibodies in blocking solution overnight at 4°C: apoptosis inducing factor, AIF or endonuclease G, and endoG. Cells were then washed with PBS three times and incubated with corresponding secondary antibody conjugated to Alexa Fluor 488 (Molecular Probes) in blocking solution in dark at room temperature for 1 h. After further washing with PBS for three times, the cover slips were then mounted on glass slides using the Vectashield mounting medium with DAPI (Vector Laboratories, Burlingame, CA). Stained cells were then visualized under the Nikon Ti-E inverted microscope (Nikon, Tokyo, Japan).

[3] = tested on: cell cycle related proteins in HaCaT cells; experiment: Western blot of cell cycle related proteins; settings: 12 h
Method: as §1

HaCaT cells [4] = experiment: TUNEL assay, flow cytometry; settings: 24 h
Method: After DHNA treatment, HaCaT cells were collected and washed and subsequent steps were following the protocol of In Situ Cell Death Detection kit, Fluorescein (Roche Applied Science). Fluorescein-labeled DNA strand breaks were detected by flow cytometry. The percentage of hypodiploid (fragmented) nuclei reflecting relative proportion of apoptotic cells was analyzed by WinMDI 2.9.

HaCaT cells [5] = experiment: DNA fragmentation, Cell Death Detection ELISAplus; settings: 240 μM (49.01 μg/mL)
Method: After incubation of HaCaT cells with DHNA, subsequent experimental steps were following the protocol of the Cell Death Detection ELISA^plus (Roche Applied Science, Basel, Switzerland). Absorbance was measured at 405/490 nm by the Sunrise microplate spectrophotometer. Enrichment of mono- and oligonucleosomes (cytoplasmic histone-associated DNA fragments) into the cytoplasm was calculated as absorbance of treatment cells/absorbance of control (enrichment factor) which was used as a parameter of apoptosis.

NCTC 2544 cells = experiment: Proliferation assay (sulphorhodamine B) on NCTC 2544; settings: for IC50: Homo sapiens, read-out: IC50 on growth
From the text: The spontaneously immortalized human epidermal keratinocyte HaCaT cells were purchased from China Centre for Type Culture Collection, Wuhan, China. The human foreskin fibroblast Hs-68 cells were purchased from the American Type Culture Collection (Manassas, VA, USA). The human undifferentiated keratinocyte NCTC 2544 cells were provided by Interlab Cell Line Collection (Genoa, Italy) and the immortalized human epidermal melanocyte PIG1 cells were a gift from Dr Caroline Le Poole (Loyola University Chicago, Maywood, IL, USA). HaCaT and Hs-68 cells were maintained in DMEM, NCTC 2544 in RPMI 1640 and PIG1 cells in Medium 254 with Human Melanocyte Growth Supplement-2, respectively. All cells were cultured in complete medium containing 10% FBS, 100 μg/mL of streptomycin, and 100 U/mL of penicillin (Gibco Laboratories) at 37°C in a humidified atmosphere of 5% CO2. Cell culture experiments were carried out at 60–80% confluent.
The ethyl acetate extract (EA) of Rubia cordifolia L. was isolated as described. 1,4-dihydroxy-2-naphthoic acid (98%), dithranol (≥90%), and EA were dissolved in DMSO as stock. All cells were seeded and treated with various concentrations of DHNA, dithranol or EA. After treatment, cells were fixed with cold 50% trichloroacetic acid and incubated 1 h at 4°C. Cell was then washed with deionized water, air-dried, and stained with 0.4% (w/v) sulphorhodamine B for 30 min at room temperature. Unincorporated dye was removed with 1% acetic acid wash and the cell was again air-dried. Incorporated dye was then solubilized in 10 mM Tris base and absorbance was measured at 565/690 nm using a Sunrise microplate spectrophotometer (Tecan, Switzerland). IC50 were determined using GraphPad Prism 5.0 (GraphPad Software, San Diego, CA, USA).

## O=C(O)c1cc(O)c2ccccc2c1O [DHNA, 1,4-dihydroxy-2-naphthoic acid]
[1]; 240 μM (49.01 μg/mL), 12 h
  Bid cleavage: not cleaved
  Fas receptor and active form of caspase-3/7/8: upregulated
  PARP cleavage: induced PARP cleavage
  active form of caspase-9: no active form of caspase-9 was found
  procaspase-8 level: decreased
[1]; 12 h
  expression levels of Bcl-2, Bcl-xL, Bid, and FADD: no significant changes
[1]; 24 h
  activated caspase-9 and cleaved Bid: could then be detected
[2]
  localization of AIF and endoG: translocated to the nucleus
[3]; 240 μM (49.01 μg/mL)
  active form of Cdk2 (Thr160 phosphorylated, 33 kDa): no visible change
  inactive form of Cdk2 (Thr14 and Tyr15 phosphorylated, 34 kDa): increased
  level of Cyclin A/D1/D3 and Cdk4: decreasing
[3]
  expression level of p27 and Cdk6: remains unchanged
  expression of cyclin dependent kinase inhibitor p21: dose-dependent increase
HaCaT cells [4]; 30 μM/6.13 μg/mL
  TUNEL positive cells: 15.8%
HaCaT cells [4]; 240 μM/49.01 μg/mL
  TUNEL positive cells: 92.7%
HaCaT cells [5]; 24 h
  increase of DNA fragmentation compared with vehicle control: approximately 3.4 folds
HaCaT cells [5]; 48 h
  increase of DNA fragmentation compared with vehicle control: ~5.2 folds
NCTC 2544 cells; NCTC 2544, incubation 48 h
  IC50: 81.4 µM and 16.6 µg/mL
NCTC 2544 cells; NCTC 2544, incubation 72 h
  IC50: 46.8 µM and 9.56 µg/mL
NCTC 2544 cells; NCTC 2544, compared with dithranol
  less potent than dithranol in inhibiting keratinocytes growth: ~ 12 times
